In patent publication US5700682A, “Mechanism based screen for retinoid X receptor agonists and antagonists” (American Cyanamid Company, priority 1995, dated 1997):

What was measured:
RXRα = molecular target: T1, RXRα (Homo sapiens, UniProt P19793); assay: Plate assay (X-GAL, blue halo) as a screen to detect RXRα agonists; type: cell-based; settings: discs containing hormone on agar plate with X-GAL; FIG. 7
T1 construct: reporter YRpA: two apoAI site A copies-CYC1-lacZ
T1 sequence (P19793 1-462): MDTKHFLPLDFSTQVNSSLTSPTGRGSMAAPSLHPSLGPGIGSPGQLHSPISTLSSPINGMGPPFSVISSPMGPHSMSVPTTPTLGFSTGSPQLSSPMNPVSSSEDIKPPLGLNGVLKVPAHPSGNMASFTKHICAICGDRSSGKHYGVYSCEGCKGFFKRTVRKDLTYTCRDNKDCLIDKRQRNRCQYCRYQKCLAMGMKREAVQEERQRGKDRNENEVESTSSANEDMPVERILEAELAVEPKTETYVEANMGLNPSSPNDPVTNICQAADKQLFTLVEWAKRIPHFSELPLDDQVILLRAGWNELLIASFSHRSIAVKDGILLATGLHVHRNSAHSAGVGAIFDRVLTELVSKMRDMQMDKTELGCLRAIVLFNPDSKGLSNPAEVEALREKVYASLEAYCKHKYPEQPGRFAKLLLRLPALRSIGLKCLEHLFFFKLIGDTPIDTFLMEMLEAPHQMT
Source text: Yeast cells containing the RXRα expression plasmid and the reporter construct are inoculated in Yeast media containing the chromogenic substrate, X-GAL® (a registered trademark of 5-bromo-4-chloro-3-indolyl-β-D-galactopyranoside, commercially available from Gibco BRL, Bethesda, Md.).
To identify nontoxic ligands of RXRα, the present invention includes a novel screen for detecting compounds having retinoid X receptor agonist or antagonist activity by the following steps: (1) Providing a yeast strain which expresses the […] and activates the reporter plasmid containing apoAI gene site A or a mutated variant thereof; (2) incubating the compound in suitable media and a colorless chromogenic substrate; and (3) examining the media for development of color. FIG. 7 illustrates the screen as a plate assay which detects RXRα agonists. Yeast cells containing the RXRα expression plasmid and the reporter construct are inoculated in yeast media containing the chromogenic substrate, X-GAL® (a registered trademark of 5-bromo-4-chloro-3-indolyl-β-D-galactopyranoside, commercially available from Gibco BRL, Bethesda, Md.). Other well-known chromogenic substrates may substitute for X-GAL®. Then, discs containing different test compounds may be placed on top of the agar plate. Induction of the reporter enzyme by the ligands of RXRα is reflected by the formation of a color.

[1] = system: RXRα binding to the apoAI gene site A; settings: reticulocyte lysates; cited from earlier work

C[C@]12CCC(=O)C=C1CC[C@@H]1[C@@H]2C(=O)C[C@@]2(C)[C@H]1CC[C@]2(O)C(=O)CO [cortisone]
Induction of the reporter enzyme as reflected by formation of the blue halo (RXRα): observed for 9-cis retinoic acid and all-trans-retinoic acids only

CC1=C(/C=C/C(C)=C\C=C\C(C)=C\C(=O)O)C(C)(C)CCC1 [9-cis-RA, 9-cis-retinoic acid]
Binding of in vitro translated RXRα to apoAI gene site A on supplementing lysates with ligand [1]: does not bind to the apoAI gene site A unless these lysates are supplemented

C[C@]12CC[C@H]3[C@@H](CCC4=CC(=O)CC[C@@]43C)[C@@H]1CC[C@@H]2O [testosterone]
Induction of the reporter enzyme as reflected by formation of the blue halo (RXRα): observed for 9-cis retinoic acid and all-trans-retinoic acids only

CC(=O)[C@H]1CC[C@H]2[C@@H]3CCC4=CC(=O)CC[C@]4(C)[C@H]3CC[C@]12C [progesterone]
Induction of the reporter enzyme as reflected by formation of the blue halo (RXRα): observed for 9-cis retinoic acid and all-trans-retinoic acids only

CC(C)(O)CC[C@@H](O)[C@](C)(O)[C@H]1CC[C@@]2(O)C3=CC(=O)[C@@H]4C[C@@H](O)[C@@H](O)C[C@]4(C)[C@H]3CC[C@]12C [20-hydroxyecdysone]
Induction of the reporter enzyme as reflected by formation of the blue halo (RXRα): observed for 9-cis retinoic acid and all-trans-retinoic acids only

CC1=C(/C=C/C(C)=C/C=C/C(C)=C/C(=O)O)C(C)(C)CCC1 [all-trans-RA, all-trans-retinoic acid]
Binding of in vitro translated RXRα to apoAI gene site A on supplementing lysates with ligand [1]: to the lesser extent
